How the values were obtained:
[1] = biological target: T1, γ-secretase (Homo sapiens, UniProt P49768); test: Cell-based Notch cleavage assay, immunostaining with SM320, HEK293 cells transfected with N1-ΔE; conditions: 1 μM inhibitor, 48 hours
T1 construct: endogenous in cells; host or cells: HEK293 cells transiently transfected with myc-tagged N1-ΔE (substrate only)
Protocol: HEK293 cells were seeded in a 4-well chamber slide (Lab-tek) and transfected with N1-ΔE as in the preceding paragraph, using Fugene 6 transfection reagents (Roche Applied Science, Mannheim, Germany). Transfected cells were then treated with either DMSO at a 1% final concentration or 1 μM Compound E.
After 48 hours of treatment, the cells were washed with PBS, fixed with cold methanol and permeabilized with 0.25% Tween-20. SM320 and anti-myc antibodies were added to detect NICD and full length N1-ΔE, respectively. Alexa Fluor-488 (Invitrogen, San Diego, Calif.) conjugated anti-rabbit and Alexa Fluor-594 (Invitrogen) conjugated anti-mouse antibodies were used as corresponding secondary antibodies. 4′,6-diamidino-2-phenylindole (DAPI) was used to stain cell nuclei. Finally, fluorescent images were captured with a Leica TCS Sp2 AOBS laser scanning confocal microscope (Memorial Sloan-Kettering Cancer Center Molecular Cytology Core Facility). Alternatively, REK 293 cells overexpressing N1-ΔE were treated with DMSO or Compound E, and were then collected through centrifugation and embedded in paraffin. The cell pellets were sliced and mounted on glass slides. […]
SM320 was further characterized using immunostaining analysis. […] Using confocal microscopy, it was shown that N1-ΔE protein, as detected by anti-myc antibody, is expressed in cells transfected with the construct (FIG. 6B, panel 2). […]

[2] = biological target: T2, M146L PS1 γ-secretase (Homo sapiens, UniProt P49768, M146L); test: In vitro N1-Sb1 γ-secretase assay, membrane of N2a cells expressing M146L PS1; assay type: biochemical, murine; conditions: M146L PS1; read-out: IC50 of γ-secretase inhibition (N1-Sb1 cleavage)
T2 construct: total membrane
Protocol: HeLa membrane fraction was isolated from HeLa-S3 cells (National Cell Culture Center). The cell pellet was resuspended in Buffer A (50 mM MES, 150 mM KCl, 5 mM CaCl2, 5 mM MgCl2) and lysed by passage through a French Press. N2a cells (murine neuroblastoma cells) over-expressing wild-type PS1, or mutants M146L or E280A, were obtained from Dr. Sangram Sisodia (University of Chicago, Chicago, Ill.). These cells were maintained in 50% Dulbecco's modified Eagle's medium high glucose, 50% Opti-Mem Reduced Serum Media, and 10% fetal calf serum. Cultured cells were pelleted by centrifugation and resuspended in hypotonic buffer (40 mM Tris, pH 7.4, 10 mM NaCl, 1 mM EDTA, and 0.5 mM DTT) for 20 minutes before being lysed with a dounce homogenizer. Nuclear debris from the HeLa and N2a cells were pelleted at 3000 rpm for 30 minutes. The resulting supernatants were ultracentrifuged at 100,000×g for 1 hour. The pellet that contained total cell membrane was resuspended in Buffer A. Mouse brains overexpressing knock-in wild type or M146V PS1 (gift from Dr. Hui Zheng, Amylin Pharmaceuticals, San Diego, Calif.) were homogenized with dounce homogenizer. The cell lysate was centrifuged at 3000 rpm for 30 minutes. The supernatants were ultracentrifuged at 100,000×g for 1 hour. Protein concentration was determined with the DC Protein Assay Kit according to the manufacturer's instructions (Bio-Rad, Hercules, Calif.).
An in vitro γ-secretase assay using a novel recombinant APP-derived substrate (termed “Sb4”) is disclosed in co-pending application U.S. Ser. No. 12/776,141. In the present assay based on a Notch-derived substrate, N1-Sb1 was incubated with the cell membrane fraction, prepared as described above, in the presence of 0.25% CHAPSO and 1×PIPES buffer (50 mM PIPES, pH 7.0, 150 mM KCl, 5 mM CaCl2, 5 mM MgCl2. The reaction was incubated at 37° C. for 2 hours. The Perkin Elmer AlphaScreen™ detection system was employed to assay for Notch cleavage. AlphaScreen (PerkinElmer Life and Analytical Sciences, Shelton, Conn.) is a bead based non-radioactive Amplified Luminescent Proximity Homogeneous Assay (ALPHA). When a biological interaction brings the beads together, a cascade of chemical reactions acts to produce a greatly amplified signal. Specifically, upon laser excitation, a photosensitizer in the “Donor” bead converts ambient (triplet) oxygen to the more reactive singlet state. The singlet state oxygen molecules diffuse into the solvent, and may react with a thioxene derivative in the Acceptor bead if nearby, generating chemiluminescence at 370 nm that further activates fluorophores contained in the same bead. The fluorophores subsequently emit light at 520-620 nm. In the absence of a specific biological interaction, the singlet state oxygen molecules produced by the donor bead go undetected without the close proximity of the acceptor bead. As a result no fluorescence signal at 520-620 nm is produced.
In the present system, antibody SM320, Protein A-conjugated acceptor beads, and Streptavidin-conjugated donor beads (PerkinElmer) were added to the reaction at a final concentration of 0.2 μg/ml, 2.5 μg/ml and 5 μg/ml, respectively (diagrammed in FIG. 5A). The reaction was incubated in the dark at room-temperature for 4 hours. The ALPHA signal was detected using the Envision plate reader (Perkin Elmer). The reactions were excited at 680 nm and signal was detected at 615 nm.
The effects of PS1 FAD mutations on Notch cleavage were determined using the new γ-secretase assay described in Example 2. The activities of two PS1 FAD mutations—PS1 M146L and E280A were compared against wild-type PS1 (WT), which has been previously studied (25). Total membrane was isolated from N2a cells that stably express WT, M146L, or E280A mutants. N1-Sb1 was incubated with these membranes and the resulting cN1-Sb1 was detected with SM320. […] The M146L and E280A mutants had 40% and 14% activity remaining, respectively, compared to the activity of the wild type (FIG. 7A). […]

Row | SMILES | detection of NICD by SM320 immunostaining [1] | IC50 [2]
1 | CC(C)C[C@H](NC(=O)[C@H](Cc1ccccc1)C[C@@H](O)[C@H](Cc1ccccc1)NC(=O)OC(C)(C)C)C(=O)N[C@@H](Cc1ccccc1)C(N)=O [L458] | No spots of any color are observed | 0.45 nM
2 | CC(NC(=O)Cc1cc(F)cc(F)c1)C(=O)NC1N=C(c2ccccc2)c2ccccc2N(C)C1=O (stereo not shown) [Compound E] | not in cells treated with Compound E | 0.76 nM
